Values of other authors in US20210220357A1, “1,3-THIAZOL-2-YL SUBSTITUTED BENZAMIDES FOR THE TREATMENT OF DISEASES ASSOCIATED WITH NERVE FIBER SENSITIZATION” (Bayer Aktiengesellschaft, priority 2018, published 2021).

System: treated subjects
Conditions: Clinical Phase II trials, taste sensation via the tongue

taste disturbances: taste disturbances
Compound: COc1cc(C(C)C)c(Oc2cnc(N)nc2N)cc1S(N)(=O)=O [AF-219, 5-(2,4-diamino-pyrimidin-5-yloxy)-4-isopropyl-2-methoxy-benzenesulfonamide]
